Structures are written as SMILES.

T1 sequence (P35346 whole entry): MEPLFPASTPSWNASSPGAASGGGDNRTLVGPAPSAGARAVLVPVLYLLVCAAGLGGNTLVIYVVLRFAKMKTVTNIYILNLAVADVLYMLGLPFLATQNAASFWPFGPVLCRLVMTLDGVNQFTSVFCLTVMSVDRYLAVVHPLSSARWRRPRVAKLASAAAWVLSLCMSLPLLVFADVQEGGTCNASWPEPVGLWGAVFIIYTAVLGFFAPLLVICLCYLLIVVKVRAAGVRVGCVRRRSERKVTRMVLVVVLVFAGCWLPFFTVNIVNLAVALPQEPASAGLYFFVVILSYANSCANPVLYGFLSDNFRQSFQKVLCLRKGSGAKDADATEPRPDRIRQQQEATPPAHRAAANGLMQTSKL

This experiment has as its target T1, human subtype 5 somatostatin receptor (Homo sapiens, UniProt P35346).
T1 construct: host or cells: CHO cells, stably transfected; membranes prepared from them
As to the kind of experiment: SSTR5 radioligand binding assay (membranes of transfected CHO cells, 125I-labeled 11-Tyr somatostatin-14 tracer). Conditions: CHO cell membranes, Ki calculated from IC50 by Cheng-Prussoff equation. The protocol:
A CHO cell line stably transfected with a plasmid encoding the human subtype 5 somatostatin receptor (GenBank accession number D16827) was obtained from Euroscreen. Cells were cultured and used for binding and functional assays.
Membranes of these cells were prepared by sonication in the presence of protease inhibitors and subsequent fractionating centrifugation. The protein concentration in the membrane preparation was determined using a commercial kit (BCA kit, Pierce, USA). Membranes were stored at −80° C. until use. After thawing, membranes were diluted in assay buffer (50 mM Tris-HCl at pH 7.4, 5 mM MgCl2 and 0.20% BSA) and subjected to dounce homogenization.
For binding studies, 0.1 mL membrane suspension, corresponding to app. 6×10^−15 mol receptor, was incubated for 1 h at room temperature with 0.05 nM ^125I-labeled tracer (11-Tyr somatostatin-14, Perkin-Elmer) and either test compounds in varying concentrations or, for the determination of non-specific binding, 0.001 mM non-labeled somatostatin-14. The incubation was stopped by filtration through GF/B glassfiber filters and washing with ice-cold wash buffer (50 mM Tris-HCl at pH 7.4). The bound radioactivity was measured after application of a scintillation cocktail (Microscint 40) and expressed as disintegrations per minute (dpm).
The receptor concentration was determined in a prior saturation experiment where a fixed, arbitrary amount of membranes was incubated with a concentration range of radio-labeled tracer. This allows estimating the total number of specific binding sites per amount of protein (i.e., Bmax), typically between 1 and 5 pmol/mg.
The concentration of the test compound required to result in half maximal inhibition of binding of the radio-labeled tracer (IC50) was estimated from a concentration-versus-dpm graph. The binding affinity (Ki) was calculated from the IC50 by applying the Cheng-Prussoff equation for single binding sites.
For `CCOc1cc(CN2CCC(Nc3cnc(C(N)=O)cn3)CC2)ccc1Cl` [Example 205, 5-[1-(4-Chloro-3-ethoxy-benzyl)-piperidin-4-ylamino]-pyrazine-2-carboxylic acid amide], the Ki is 0.086 µM.

Take `CCOc1cc(CN2CCC(Nc3nc(C)c(-c4ccccc4)cc3C#N)CC2)ccc1OC` [Example 24, 2-[1-(3-ethoxy-4-methoxy-benzyl)-piperidin-4-ylamino]-6-methyl-5-phenyl-nicotinonitrile]: the Ki is 0.789 µM.

Consider `CCOc1cc(CN2CCC(Nc3ccc4ccccc4n3)CC2)cc(OCC)c1F` [Example 103, [1-(3,5-diethoxy-4-fluoro-benzyl)-piperidin-4-yl]-quinolin-2-yl-amine], for which the inhibition constant Ki is 0.007 µM.

Source of the values: patent publication US8026255B2, “Substituted piperidines as somatostatin receptor subtype 5 (SSTR5) antagonists” (Hoffman-La Roche Inc., priority 2006, dated 2011).
